Experimental data from patent US20190322698A1, “WATER-SOLUBLE ALLOPR[…] USE THEREOF” (JIANGSU NHWALUOKANG PHARMACEUTICAL RESEARCH AND DEVELOPMENT …, priority 2016, published 2019).

Tests used:
[1] = Stability test of the compounds in a 5% aqueous glucose solution; assay type: physicochemical; conditions: room temperature; for Dissociation percent (%): 5% glucose solution, about 0.5 mg/ml, HPLC; for Solution: appearance of the about 0.5 mg/ml solution in 5% glucose
Method: Each of the compounds to be tested was weighed (1 mg), placed in a 5% glucose solution (2 ml) and formulated into a solution having a concentration of about 0.5 mg/ml. The solution stood at room temperature, and was sampled at several time points (0.5 h, 1 h, 2 h, 3 h and 5 h).

[2] = Dissociation test of the compounds in whole blood of rats; assay type: in vitro ADME; conditions: rat whole blood, 37° C., HPLC
Method: Each of the compounds to be tested was weighed (1 mg), placed in water (2 ml), and formulated into a solution having a concentration of about 0.5 mg/ml as a stock solution for further use. Whole blood of rats (0.45 ml) was taken and placed in a 2 ml EP tube, which was placed in a 37° C. water bath for preheating for 20 seconds. Then the stock solution of the compound (50 μL) was added quickly. After a homogeneous mixing, the EP tube was placed in a 37° C. water bath, and time counting was initiated. Acetonitrile (1 ml) was injected immediately at predetermined time points (1 min, 3 min, 5 min, 15 min). The solution was centrifuged for 5 min (15000 rpm), filtered with a 0.22 μm filtration membrane and subjected to HPLC detection, and the results were given below: […]

[3] = Solubility of the compounds in water (25° C.); assay type: physicochemical

SMILES: CC(=O)C1CCC2C3CCC4CC(OC(=O)C(F)CC(=O)[O-])CCC4(C)C3CCC12C.[Na+] (stereo not drawn) [Compound 11]
- Dissociation percent (%) ([1]; 0 h): 0.02%
- Dissociation percent (%) ([1]; 0.5 h): 0.11%
- Dissociation percent (%) ([1]; 1 h): 0.19%
- Dissociation percent (%) ([1]; 2 h): 0.32%
- Dissociation percent (%) ([1]; 3 h): 0.49%
- Dissociation percent (%) ([1]; 5 h): 0.79%
- Solution [1]: Clear
- Dissociation percent (%) ([2]; 1 min): 40.83%
- Dissociation percent (%) ([2]; 3 min): 50.35%
- Dissociation percent (%) ([2]; 5 min): 69.32%
- Dissociation percent (%) ([2]; 15 min): 100%
- Solubility [3]: >400 µg/mL

SMILES: CC(=O)C1CCC2C3CCC4CC(OC(=O)C(F)C(=O)[O-])CCC4(C)C3CCC12C.[Na+] (stereo not drawn) [Compound 10]
- Dissociation percent (%) ([1]; 0 h): 0.02%
- Dissociation percent (%) ([1]; 0.5 h): 0.14%
- Dissociation percent (%) ([1]; 1 h): 0.21%
- Dissociation percent (%) ([1]; 2 h): 0.36%
- Dissociation percent (%) ([1]; 3 h): 0.51%
- Dissociation percent (%) ([1]; 5 h): 0.86%
- Solution [1]: Clear
- Dissociation percent (%) ([2]; 1 min): 39.78%
- Dissociation percent (%) ([2]; 3 min): 52.28%
- Dissociation percent (%) ([2]; 5 min): 72.31%
- Dissociation percent (%) ([2]; 15 min): 100%
- Solubility [3]: >400 µg/mL

SMILES: CC(=O)C1CCC2C3CCC4CC(OC(=O)C(F)CCOP(=O)([O-])[O-])CCC4(C)C3CCC12C.[Na+].[Na+] (stereo not drawn) [Compound 16]
- Dissociation percent (%) ([1]; 0 h): 0.02%
- Dissociation percent (%) ([1]; 0.5 h): 0.13%
- Dissociation percent (%) ([1]; 1 h): 0.21%
- Dissociation percent (%) ([1]; 2 h): 0.41%
- Dissociation percent (%) ([1]; 3 h): 0.62%
- Dissociation percent (%) ([1]; 5 h): 0.93%
- Solution [1]: Clear
- Dissociation percent (%) ([2]; 1 min): 35.94%
- Dissociation percent (%) ([2]; 3 min): 47.88%
- Dissociation percent (%) ([2]; 5 min): 66.47%
- Dissociation percent (%) ([2]; 15 min): 94.56%
- Solubility [3]: >300 µg/mL
